Reference: ChEMBL document CHEMBL4041492 (Eur J Med Chem, 2017)

How the values were obtained:
Adenosine receptor A1 [1] = target: T1, Adenosine receptor A1 (Rattus norvegicus, UniProt P25099); assay: Displacement of [3H]DPCPX from adenosine receptor A1 in rat brain membrane; format: cell membranes
T1 sequence (P25099 whole entry): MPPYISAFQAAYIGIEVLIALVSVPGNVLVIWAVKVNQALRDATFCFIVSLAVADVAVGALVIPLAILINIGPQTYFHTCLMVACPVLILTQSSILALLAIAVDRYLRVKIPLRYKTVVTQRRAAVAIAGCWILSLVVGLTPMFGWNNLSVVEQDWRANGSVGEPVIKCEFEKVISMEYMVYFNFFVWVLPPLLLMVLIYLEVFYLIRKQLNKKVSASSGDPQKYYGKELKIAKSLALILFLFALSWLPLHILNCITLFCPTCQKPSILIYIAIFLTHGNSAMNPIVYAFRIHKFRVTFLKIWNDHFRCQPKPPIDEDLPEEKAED

Adenosine receptor A2a = Adenosine receptor A2a (Rattus norvegicus, UniProt P30543); assay: Displacement of [3H]NECA from adenosine receptor A2a in rat striatial membrane; format: cell membranes
Adenosine receptor A2a, sequence (P30543 whole entry): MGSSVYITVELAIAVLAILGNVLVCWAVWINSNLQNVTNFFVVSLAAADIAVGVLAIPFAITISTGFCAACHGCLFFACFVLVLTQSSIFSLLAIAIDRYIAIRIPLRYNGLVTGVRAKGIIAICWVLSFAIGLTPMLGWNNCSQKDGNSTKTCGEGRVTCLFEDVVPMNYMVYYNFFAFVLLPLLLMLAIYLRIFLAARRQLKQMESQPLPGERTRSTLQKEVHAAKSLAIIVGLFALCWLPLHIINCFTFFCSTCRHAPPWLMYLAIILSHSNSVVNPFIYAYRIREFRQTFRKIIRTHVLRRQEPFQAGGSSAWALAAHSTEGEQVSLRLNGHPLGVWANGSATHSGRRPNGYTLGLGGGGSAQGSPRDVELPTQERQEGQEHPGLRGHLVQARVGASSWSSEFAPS

Rattus norvegicus [2] = organism: Rattus norvegicus; assay: Selectivity index, ratio of Ki for adenosine receptor A1 in rat brain membrane to Ki for adenosine receptor A2a in rat striatal membrane; format: cell membranes
Rattus norvegicus [3] = organism: Rattus norvegicus; assay: Selectivity index, ratio of Ki for adenosine receptor A2a in rat striatal membrane to Ki for adenosine receptor A1 in rat brain membrane; format: cell membranes
Adenosine receptor A1 [4] = target: T1, Adenosine receptor A1; assay: Displacement of [3H]DPCPX from adenosine receptor A1 in rat brain membrane in presence of GTP by GTP shift assay; format: cell membranes
[5] = target: T2, Adenosine receptor A1 (Rattus norvegicus) (UniProt P25099); assay: Ratio of Ki for adenosine receptor A1 in rat brain membrane in presence of GTP to Ki for adenosine receptor A1 in rat brain membrane in absence of GTP; format: cell membranes
T2 sequence (whole entry): T1 sequence (P25099 whole entry)

[6] = Antagonist activity at adenosine receptor A2a in [3H]adenine-labeled guinea pig cerebral cortical slices assessed as inhibition of 2-chloroadenosine-stimulated [3H]-cAMP accumulation; set-up: species or system Cavia porcellus

Row | SMILES | Ki (Adenosine receptor A1 [1]) | Ki (Adenosine receptor A2a) | Ratio Ki (Rattus norvegicus [2]) | Ratio Ki (Rattus norvegicus [3]) | Ki (Adenosine receptor A1 [4]) | Ratio Ki [5] | Ki [6]
1 | Cn1c(=O)c2c(nc(NCc3ccccc3)n2C)n(C)c1=O | 7.95 µM | 4.5 µM | 1.8 | 0.6 |  |  | 
2 | Cn1c(=O)c2c(nc(SCc3ccc(Cl)cc3)n2C)n(C)c1=O | 90 µM | 51.4 µM | 1.8 | 0.6 |  |  | 
3 | Cn1c(=O)c2c(nc(OCc3ccccc3)n2C)n(C)c1=O | 1.52 µM | 4.3 µM | 0.4 | 2.8 | 1.93 µM | 1.2 | 
4 | Cn1c(=O)c2c(nc(CSc3ccccc3)n2C)n(C)c1=O | 4.85 µM | 3.33 µM | 1.5 | 0.8 |  |  | 
5 | Cn1c(=O)c2c(nc(SCc3ccccc3)n2C)n(C)c1=O | 4.32 µM | 4.64 µM | 0.9 | 1.1 |  |  | 
6 | Cn1c(=O)c2c(nc(COc3ccc(Cl)cc3)n2C)n(C)c1=O | 7.6 µM | 1.33 µM | 5.7 | 0.2 |  |  | 
7 | Cn1c(=O)c2c(nc(COc3ccccc3)n2C)n(C)c1=O |  |  | 1.3 | 0.8 | 4.01 µM | 1.3 | 

Next, values leading:

Row | Ki (Adenosine receptor A1 [1]) | Ki (Adenosine receptor A2a) | Ratio Ki (Rattus norvegicus [2]) | Ratio Ki (Rattus norvegicus [3]) | Ki (Adenosine receptor A1 [4]) | Ratio Ki [5] | Ki [6] | SMILES
8 | 20.8 µM | 1.5 µM | 13.9 | 0.1 |  |  |  | Cn1c(=O)c2c(nc(CSc3ccc(Cl)cc3)n2C)n(C)c1=O
9 |  |  |  |  |  |  | 50 µM | Cn1c(=O)c2c(ncn2C)n(C)c1=O [CAFFEINE]
10 | 17.4 µM | 3.31 µM | 5.3 | 0.2 |  |  |  | Cn1c(=O)c2c(nc(OCc3ccc(Cl)cc3)n2C)n(C)c1=O
11 |  |  | 1.2 | 0.9 |  |  |  | Cn1c(=O)c2c(nc(CCc3ccccc3)n2C)n(C)c1=O
